# Target: T1, p38MAPKγ (MAPK12) (Homo sapiens, UniProt P53778)
# T1 construct: purchased Life Technologies
# T1 sequence (P53778 1-367): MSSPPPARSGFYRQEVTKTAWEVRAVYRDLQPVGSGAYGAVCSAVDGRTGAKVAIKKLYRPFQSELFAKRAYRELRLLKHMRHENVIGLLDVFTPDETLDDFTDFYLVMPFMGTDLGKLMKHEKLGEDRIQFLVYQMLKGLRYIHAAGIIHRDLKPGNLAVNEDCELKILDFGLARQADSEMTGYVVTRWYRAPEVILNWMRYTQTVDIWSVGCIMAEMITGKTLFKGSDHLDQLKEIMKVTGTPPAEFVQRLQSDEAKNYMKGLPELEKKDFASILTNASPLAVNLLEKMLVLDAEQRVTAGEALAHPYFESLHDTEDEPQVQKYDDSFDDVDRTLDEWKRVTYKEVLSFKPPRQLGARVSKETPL
# Test: p38 MAPKγ enzyme inhibition (Z-LYTE FRET)
# Type: biochemical
# Settings: Table 2B, unit inferred; read-out: p38 MAPKγ (Enzyme Profile)
# Method: The enzyme inhibitory activities of compounds disclosed herein were determined by FRET using synthetic peptides labelled with both donor and acceptor fluorophores (Z-LYTE, Life Technologies, Paisley, UK).
# The inhibitory activities of compounds of the invention against p38MAPKγ (MAPK12: Life Technologies), were evaluated by determining the level of activation/phosphorylation of the target peptide. The enzyme (800 ng/mL, 2.5 μL) was incubated with the test compound (2.5 μL at either 40 μg/mL, 12 μg/mL, 4 μg/mL, 1.2 μg/mL, 0.4 μg/mL, 0.12 μg/mL, 0.04 μg/mL, 0.012 μg/mL, 0.004 μg/mL or 0.0012 μg/mL) for 2 h at RT. The FRET peptides (8 μM, 2.5 μL), and appropriate ATP solution (2.5 μL, 400 μM) were then added to the enzymes/compound mixtures and incubated for 1 h at RT. Development reagent (protease, 5 μL) was added for 1 h prior to detection in a fluorescence microplate reader (EnVision, Perkin Elmer).
# In all cases, the site-specific protease cleaves non-phosphorylated peptide only and eliminates the FRET signal. Phosphorylation levels of each reaction were calculated using the ratio of coumarin emission (donor) over fluorescein emission (acceptor), for which low ratios indicate high phosphorylation and high ratios indicate low phosphorylation levels.
row,Compound,IC50 [nM]
1,"Cc1ccc(-n2nc(C(C)(C)C)cc2NC(=O)Nc2ccc(OCc3ccnc(Nc4cncc(CN5CCOCC5)n4)c3)c3ccccc23)cc1 [Example 285, 1-(3-(tert-butyl)-1-(p-tolyl)-1H-pyrazol-5-yl)-3-(4-((2-((6-(morpholinomethyl)pyrazin-2-yl)amino)pyridin-4-yl)methoxy)naphthalen-1-yl)urea]",83
2,"CC(C)(C)c1cc(NC(=O)Nc2ccc(OCc3ccnc(Nc4cnc(CO)cn4)c3)c3ccccc23)n(-c2cccc(F)c2)n1 [Example 253, 1-(3-(tert-butyl)-1-(3-fluoro-phenyl)-1H-pyrazol-5-yl)-3-(4-((2-((5-(hydroxymethyl)pyrazin-2-yl)amino)pyridin-4-yl)methoxy)naphthalen-1-yl)urea]",75
3,"CCc1cncc(Nc2cc(COc3ccc(NC(=O)Nc4cc(C(C)(C)C)nn4-c4cc(C)cc(F)c4)c4ccccc34)ccn2)n1 [Example 254, 1-(3-(tert-butyl)-1-(3-fluoro-5-methylphenyl)-1H-pyrazol-5-yl)-3-(4-((2-((6-ethyl-pyrazin-2-yl)amino)pyridin-4-yl)methoxy)naphthalen-1-yl)urea]",1930
4,Cc1ccc(-n2nc(C(C)(C)C)cc2NC(=O)Nc2ccc(OCc3ccnc(Nc4cnc(C(=O)NCCN5CC[C@@H](F)C5)cn4)c3)c3ccccc23)cc1 [Example 100],202
5,CSc1cccc(-n2nc(C(C)(C)C)cc2NC(=O)Nc2ccc(OCc3ccnc(Nc4cnccn4)c3)c3ccccc23)c1 [Example 77],106
6,COC(=O)N1CCN(CCNC(=O)c2cnc(Nc3cc(COc4ccc(NC(=O)Nc5cc(C(C)(C)C)nn5-c5ccc(C)cc5)c5ccccc45)ccn3)cn2)CC1 [Example 91],176
7,Cc1ccc(-n2nc(C(C)(C)C)cc2NC(=O)Nc2ccc(OCc3ccnc(Nc4cnc(C(=O)NC5CCN(CCO)CC5)cn4)c3)c3ccccc23)cc1 [Example 103],72
8,"COCc1cccc(-n2nc(C(C)(C)C)cc2NC(=O)Nc2ccc(OCc3ccnc(Nc4cnc(C(=O)N5CCC(N(C)C)CC5)cn4)c3)c3ccccc23)c1 [Example 284, 1-(3-(tert-butyl)-1-(3-(methoxymethyl)phenyl)-1H-pyrazol-5-yl)-3-(4-((2-((5-(4-(dimethylamino)piperidine-1-carbonyl)pyrazin-2-yl)amino)pyridin-4-yl)methoxy)naphthalen-1-yl)urea]",1.7
9,"COCc1cccc(-n2nc(C(C)(C)C)cc2NC(=O)Nc2ccc(OCc3ccnc(Nc4cnc(CN5CCN(C)CC5)cn4)c3)c3ccccc23)c1 [Example 276, 1-(3-(tert-butyl)-1-(3-(methoxymethyl)phenyl)-1H-pyrazol-5-yl)-3-(4-((2-((5-((4-methylpiperazin-1-yl)methyl)pyrazin-2-yl)amino)pyridin-4-yl)methoxy)naphthalen-1-yl)urea]",8.4
10,Cc1ccc(-n2nc(C(C)(C)C)cc2NC(=O)Nc2ccc(OCc3ccnc(Nc4cnc(C(=O)NCCN5CCC[C@@H](O)C5)cn4)c3)c3ccccc23)cc1 [Example 95],55
11,"CCN1CCN(C(=O)c2cnc(Nc3cc(COc4ccc(NC(=O)Nc5cc(C(C)(C)C)nn5-c5cccc(COC)c5)c5ccccc45)ccn3)cn2)CC1 [Example 283, 1-(3-(tert-butyl)-1-(3-(methoxymethyl)phenyl)-1H-pyrazol-5-yl)-3-(4-((2-((5-(4-ethylpiperazine-1-carbonyl)pyrazin-2-yl)amino)pyridin-4-yl)methoxy)naphthalen-1-yl)urea]",35
12,COCc1cccc(-n2nc(C(C)(C)C)cc2NC(=O)Nc2ccc(OCc3ccnc(Nc4cnc(C(=O)NCC5CCN(C)CC5)cn4)c3)c3ccccc23)c1 [Example 99],11
13,"Cc1ccc(-n2nc(C(C)(C)C)cc2NC(=O)Nc2ccc(OCc3ccnc(Nc4cnc(C(=O)NCC(C)(C)N5CCOCC5)cn4)c3)c3ccccc23)cc1 [Example 281, 5-((4-(((4-(3-(3-(tert-butyl)-1-(p-tolyl)-1H-pyrazol-5-yl)ureido)naphthalen-1-yl)oxy)methyl)pyridin-2-yl)amino)-N-(2-methyl-2-morpholinopropyl)pyrazine-2-carboxamide]",289
14,Cc1ccc(-n2nc(C(C)(C)C)cc2NC(=O)Nc2ccc(OCc3ccnc(Nc4cnc(C(=O)N5CCC(N(C)C)CC5)cn4)c3)c3ccccc23)cc1 [Example 272],4
15,CC(=O)N1CCN(CCNC(=O)c2cnc(Nc3cc(COc4ccc(NC(=O)Nc5cc(C(C)(C)C)nn5-c5ccc(C)cc5)c5ccccc45)ccn3)cn2)CC1 [Example 102],46
16,Cc1ccc(-n2nc(C(C)(C)C)cc2NC(=O)Nc2ccc(OCc3ccnc(Nc4cnc(C(=O)NCCn5ccnc5C)cn4)c3)c3ccccc23)cc1 [Example 90],83
17,"CO[C@H]1CCCN(CCNC(=O)c2cnc(Nc3cc(COc4ccc(NC(=O)Nc5cc(C(C)(C)C)nn5-c5ccc(C)cc5)c5ccccc45)ccn3)cn2)C1 [Example 54, (S)-5-((4-(((4-(3-(3-(tert-butyl)-1-(p-tolyl)-1H-pyrazol-5-yl)ureido)naphthalen-1-yl)oxy)methyl)pyridin-2-yl)amino)-N-(2-(3-methoxypiperidin-1-yl)ethyl)pyrazine-2-carboxamide]",150
18,Cc1ccc(-n2nc(C(C)(C)C)cc2NC(=O)Nc2ccc(OCc3ccnc(Nc4cnc(C(=O)NC5CN(C)C5)cn4)c3)c3ccccc23)cc1 [Example 89],42
19,Cc1ccc(-n2nc(C(C)(C)C)cc2NC(=O)Nc2ccc(OCc3ccnc(Nc4cnc(C(=O)NCCN5CCC[C@H](F)C5)cn4)c3)c3ccccc23)cc1 [Example 101],374
20,Cc1ccc(-n2nc(C(C)(C)C)cc2NC(=O)Nc2ccc(OCc3ccnc(Nc4cnc(C(=O)NCCN5CCC(F)(F)CC5)cn4)c3)c3ccccc23)cc1 [Example 94],772
21,"Cc1ccc(-n2nc(C(C)(C)C)cc2NC(=O)Nc2ccc(OCc3ccnc(Nc4cnc(C(=O)N5CCN6CCC[C@H]6C5)cn4)c3)c3ccccc23)cc1 [Example 275, (S)-1-(3-(tert-butyl)-1-(p-tolyl)-1H-pyrazol-5-yl)-3-(4-((2-((5-(octahydropyrrolo [1,2-a]pyrazine-2-carbonyl)pyrazin-2-yl)amino)pyridin-4-yl)methoxy)naphthalen-1-yl)urea]",129
22,"Cc1ccc(-n2nc(C(C)(C)C)cc2NC(=O)Nc2ccc(OCc3ccnc(Nc4cnc(C(=O)N5CCN(CCN(C)C)CC5)cn4)c3)c3ccccc23)cc1 [Example 273, 1-(3-(tert-butyl)-1-(p-tolyl)-1H-pyrazol-5-yl)-3-(4-((2-((5-(4-(2-(dimethylamino)ethyl)piperazine-1-carbonyl)pyrazin-2-yl)amino)pyridin-4-yl)methoxy)naphthalen-1-yl)urea]",4.7
23,Cc1ccc(-n2nc(C(C)(C)C)cc2NC(=O)Nc2ccc(OCc3ccnc(Nc4cnc(C(=O)NCC5CCN(C)CC5)cn4)c3)c3ccccc23)cc1 [Example 81],16
24,Cc1ccc(-n2nc(C(C)(C)C)cc2NC(=O)Nc2ccc(OCc3ccnc(Nc4cnc(C(=O)N[C@H]5COC[C@@H]5N5CCOCC5)cn4)c3)c3ccccc23)cc1 [Example 93],103
25,"COc1ccc(-n2nc(C(C)(C)C)cc2NC(=O)Nc2ccc(OCc3ccnc(Nc4cnc(C)c(C)n4)c3)c3ccccc23)cc1F [Example 252, 1-(3-(tert-butyl)-1-(3-fluoro-4-methoxyphenyl)-1H-pyrazol-5-yl)-3-(4-((2-((5,6-dimethylpyrazin-2-yl)amino)pyridin-4-yl)methoxy)naphthalen-1-yl)urea]",> 15100
26,CO[C@@H]1CCN(CCNC(=O)c2cnc(Nc3cc(COc4ccc(NC(=O)Nc5cc(C(C)(C)C)nn5-c5ccc(C)cc5)c5ccccc45)ccn3)cn2)C1 [Example 98],116
27,"COCCN1CCC(NC(=O)c2cnc(Nc3cc(COc4ccc(NC(=O)Nc5cc(C(C)(C)C)nn5-c5ccc(C)cc5)c5ccccc45)ccn3)cn2)CC1 [Example 282, 5-((4-(((4-(3-(3-(tert-butyl)-1-(p-tolyl)-1H-pyrazol-5-yl)ureido)naphthalen-1-yl)oxy)methyl)pyridin-2-yl)amino)-N-(1-(2-methoxy-ethyl)piperidin-4-yl) pyrazine-2-carboxamide]",62
28,Cc1ccc(-n2nc(C(C)(C)C)cc2NC(=O)Nc2ccc(OCc3ccnc(Nc4cnc(C(=O)NCCN5CC[C@@H](O)C5)cn4)c3)c3ccccc23)cc1 [Example 97],34
29,Cc1ccc(-n2nc(C(C)(C)C)cc2NC(=O)Nc2ccc(OCc3ccnc(Nc4cnc(C(=O)N[C@H]5CCN(C)C5)cn4)c3)c3ccccc23)cc1 [Example 83],39
30,"Cc1ccc(-n2nc(C(C)(C)C)cc2NC(=O)Nc2ccc(OCc3ccnc(Nc4cnc(C(=O)NCc5nccn5C)cn4)c3)c3ccccc23)cc1 [Example 288, 5-((4-(((4-(3-(3-(tert-butyl)-1-(p-tolyl)-1H-pyrazol-5-yl)ureido)naphthalen-1-yl)oxy)methyl)pyridin-2-yl)amino)-N-((1-methyl-1H-imidazol-2-yl)methyl)pyrazine-2-carboxamide]",> 13600

# Source: patent US11142515B2, “Pyrazolyl-ureas as kinase inhibitors” (RESPIVERT LIMITED, priority 2014, dated 2021)
